According to patent US9682995B2, “Amino-substituted isothiazoles” (BAYER PHARMA AKTIENGESELLSCHAFT, priority 2013, dated 2017):

What was measured:
Test in all cases: Kinase Profiling (KINOMEscan)
Format in all cases: binding
[1] = target: 456 kinases (of these 395 non-mutant kinases) (Homo sapiens, UniProt Q12866); details: MERTK; 10 μM
[2] = target: 456 kinases (of these 395 non-mutant kinases) (Homo sapiens, UniProt Q96SB4); details: SRPK1; 10 μM
[3] = target: 456 kinases (of these 395 non-mutant kinases) (Homo sapiens, UniProt Q8IVH8); details: MAP4K3; 10 μM
[4] = target: 456 kinases (of these 395 non-mutant kinases) (Homo sapiens, UniProt O15111); details: IKK-alpha; 10 μM
[5] = target: 456 kinases (of these 395 non-mutant kinases) (Homo sapiens, UniProt P42336, E542K); details: PIK3CA(E542K); 10 μM
[6] = target: 456 kinases (of these 395 non-mutant kinases) (Homo sapiens, UniProt P10721, A829P); details: KIT(A829P); 10 μM
[7] = target: 456 kinases (of these 395 non-mutant kinases) (Homo sapiens, UniProt Q9BZL6); details: PRKD2; 10 μM
[8] = target: 456 kinases (of these 395 non-mutant kinases) (Homo sapiens, UniProt Q6ZWH5); details: NEK10; 10 μM
[9] = target: 456 kinases (of these 395 non-mutant kinases) (Homo sapiens, UniProt Q15746); details: MYLK; 10 μM
[10] = target: 456 kinases (of these 395 non-mutant kinases) (Homo sapiens, UniProt Q15831); details: LKB1; 10 μM
[11] = target: 456 kinases (of these 395 non-mutant kinases) (Homo sapiens, UniProt P15056, V600E); details: BRAF(V600E); 10 μM
[12] = target: 456 kinases (of these 395 non-mutant kinases) (Homo sapiens, UniProt Q13627); details: DYRK1A; 10 μM
[13] = target: 456 kinases (of these 395 non-mutant kinases) (Homo sapiens, UniProt Q9NQU5); details: PAK6; 10 μM
[14] = target: 456 kinases (of these 395 non-mutant kinases) (Homo sapiens, UniProt P42336, Q546K); details: PIK3CA(Q546K); 10 μM
[15] = target: 456 kinases (of these 395 non-mutant kinases) (Homo sapiens, UniProt P43403); details: ZAP70; 10 μM
[16] = target: 456 kinases (of these 395 non-mutant kinases) (Homo sapiens, UniProt Q04771); details: ACVR1; 10 μM
[17] = target: 456 kinases (of these 395 non-mutant kinases) (Homo sapiens, UniProt O76039); details: CDKL5; 10 μM
[18] = target: 456 kinases (of these 395 non-mutant kinases) (Homo sapiens, UniProt P10721, D816V); details: KIT(D816V); 10 μM
[19] = target: 456 kinases (of these 395 non-mutant kinases) (Homo sapiens, UniProt Q9UIK4); details: DAPK2; 10 μM
[20] = target: 456 kinases (of these 395 non-mutant kinases) (Homo sapiens, UniProt Q8WTQ7); details: GRK7; 10 μM
[21] = target: 456 kinases (of these 395 non-mutant kinases) (Homo sapiens, UniProt P42338); details: PIK3CB; 10 μM
[22] = target: 456 kinases (of these 395 non-mutant kinases) (Homo sapiens, UniProt Q13554); details: CAMK2B; 10 μM
[23] = target: 456 kinases (of these 395 non-mutant kinases) (Homo sapiens, UniProt Q9P286); details: PAK7; 10 μM
[24] = target: 456 kinases (of these 395 non-mutant kinases) (Homo sapiens, UniProt P19784); details: CSNK2A2; 10 μM
[25] = target: 456 kinases (of these 395 non-mutant kinases) (Homo sapiens, UniProt P50613); details: CDK7; 10 μM
[26] = target: 456 kinases (of these 395 non-mutant kinases) (Homo sapiens, UniProt Q8TDR2); details: STK35; 10 μM
[27] = target: 456 kinases (of these 395 non-mutant kinases) (Homo sapiens, UniProt Q9UEE5); details: DRAK1; 10 μM
[28] = target: 456 kinases (of these 395 non-mutant kinases) (Homo sapiens, UniProt O94806); details: PRKD3; 10 μM
[29] = target: 456 kinases (of these 395 non-mutant kinases) (Homo sapiens, UniProt P07333); details: 10 μM
[30] = target: 456 kinases (of these 395 non-mutant kinases) (Homo sapiens, UniProt Q15375); details: EPHA7; 10 μM
[31] = target: 456 kinases (of these 395 non-mutant kinases) (Homo sapiens, UniProt O43283); details: LZK; 10 μM
[32] = target: 456 kinases (of these 395 non-mutant kinases) (Homo sapiens, UniProt Q15759); details: p38-beta; 10 μM

Sequence of 456 kinases (of these 395 non-mutant kinases) (Homo sapiens, UniProt P07333) (P07333 20-972 limits assumed, change not shown): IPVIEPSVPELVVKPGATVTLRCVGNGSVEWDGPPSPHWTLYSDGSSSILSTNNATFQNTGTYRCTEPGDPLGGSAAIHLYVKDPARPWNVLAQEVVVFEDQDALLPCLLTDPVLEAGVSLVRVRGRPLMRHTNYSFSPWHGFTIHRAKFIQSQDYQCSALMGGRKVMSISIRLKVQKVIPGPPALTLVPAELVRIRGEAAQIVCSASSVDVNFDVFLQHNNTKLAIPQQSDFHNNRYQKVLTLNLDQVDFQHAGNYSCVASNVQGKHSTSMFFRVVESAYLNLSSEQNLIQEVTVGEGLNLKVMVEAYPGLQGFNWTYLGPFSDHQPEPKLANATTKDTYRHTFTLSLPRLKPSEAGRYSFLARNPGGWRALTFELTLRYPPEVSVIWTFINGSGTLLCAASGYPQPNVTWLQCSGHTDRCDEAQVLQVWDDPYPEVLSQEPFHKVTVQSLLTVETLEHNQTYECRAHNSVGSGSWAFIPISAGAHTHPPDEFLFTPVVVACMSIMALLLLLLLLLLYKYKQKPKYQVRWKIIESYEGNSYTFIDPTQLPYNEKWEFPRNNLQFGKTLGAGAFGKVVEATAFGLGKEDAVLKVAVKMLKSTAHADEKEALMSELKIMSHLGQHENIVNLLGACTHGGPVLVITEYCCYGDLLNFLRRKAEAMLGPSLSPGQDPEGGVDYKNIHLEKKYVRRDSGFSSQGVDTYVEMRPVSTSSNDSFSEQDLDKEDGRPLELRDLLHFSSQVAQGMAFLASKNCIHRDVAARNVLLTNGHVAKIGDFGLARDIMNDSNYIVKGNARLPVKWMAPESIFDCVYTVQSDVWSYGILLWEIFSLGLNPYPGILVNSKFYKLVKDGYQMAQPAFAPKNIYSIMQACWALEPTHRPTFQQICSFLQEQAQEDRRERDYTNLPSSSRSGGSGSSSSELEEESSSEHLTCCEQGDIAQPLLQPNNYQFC
Sequence of 456 kinases (of these 395 non-mutant kinases) (Homo sapiens, UniProt P50613) (P50613 2-346 limits assumed, change not shown): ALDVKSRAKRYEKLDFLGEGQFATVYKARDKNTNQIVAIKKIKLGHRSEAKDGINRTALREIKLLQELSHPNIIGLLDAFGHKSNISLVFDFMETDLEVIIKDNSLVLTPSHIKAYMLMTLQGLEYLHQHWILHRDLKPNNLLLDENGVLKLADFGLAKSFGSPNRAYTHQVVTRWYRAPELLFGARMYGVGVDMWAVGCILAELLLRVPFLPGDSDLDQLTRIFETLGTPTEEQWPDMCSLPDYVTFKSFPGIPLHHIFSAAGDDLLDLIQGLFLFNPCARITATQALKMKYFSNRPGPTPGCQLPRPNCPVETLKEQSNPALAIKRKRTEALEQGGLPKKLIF
Sequence of 456 kinases (of these 395 non-mutant kinases) (Homo sapiens, UniProt P10721, D816V) (P10721 26-976 D816V limits assumed): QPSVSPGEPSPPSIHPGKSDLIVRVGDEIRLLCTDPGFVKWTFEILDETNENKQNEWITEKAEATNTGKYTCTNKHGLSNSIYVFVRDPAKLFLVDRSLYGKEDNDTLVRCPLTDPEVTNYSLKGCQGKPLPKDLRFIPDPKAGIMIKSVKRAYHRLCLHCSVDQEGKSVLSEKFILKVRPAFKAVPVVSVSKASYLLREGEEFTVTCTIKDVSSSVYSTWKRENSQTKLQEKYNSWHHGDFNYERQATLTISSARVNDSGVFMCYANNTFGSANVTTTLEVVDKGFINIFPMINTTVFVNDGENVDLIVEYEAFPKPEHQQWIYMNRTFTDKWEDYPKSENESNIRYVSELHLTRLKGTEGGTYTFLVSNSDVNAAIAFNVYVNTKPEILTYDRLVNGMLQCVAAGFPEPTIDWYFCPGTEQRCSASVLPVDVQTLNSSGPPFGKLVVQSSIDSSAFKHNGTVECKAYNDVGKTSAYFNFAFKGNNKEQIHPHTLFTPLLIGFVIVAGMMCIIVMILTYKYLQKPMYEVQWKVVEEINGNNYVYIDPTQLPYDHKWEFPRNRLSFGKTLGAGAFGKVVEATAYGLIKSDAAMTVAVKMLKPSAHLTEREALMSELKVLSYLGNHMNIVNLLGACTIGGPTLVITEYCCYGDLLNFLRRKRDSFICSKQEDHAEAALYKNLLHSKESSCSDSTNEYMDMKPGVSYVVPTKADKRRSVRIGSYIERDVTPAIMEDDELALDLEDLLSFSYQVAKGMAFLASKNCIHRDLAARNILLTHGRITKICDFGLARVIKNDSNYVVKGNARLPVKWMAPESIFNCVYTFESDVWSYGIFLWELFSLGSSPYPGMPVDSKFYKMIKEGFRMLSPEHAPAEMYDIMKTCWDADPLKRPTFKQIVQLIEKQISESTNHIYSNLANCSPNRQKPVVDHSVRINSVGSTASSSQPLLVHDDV
Sequence of 456 kinases (of these 395 non-mutant kinases) (Homo sapiens, UniProt Q15375) (Q15375 28-998 limits assumed, change not shown): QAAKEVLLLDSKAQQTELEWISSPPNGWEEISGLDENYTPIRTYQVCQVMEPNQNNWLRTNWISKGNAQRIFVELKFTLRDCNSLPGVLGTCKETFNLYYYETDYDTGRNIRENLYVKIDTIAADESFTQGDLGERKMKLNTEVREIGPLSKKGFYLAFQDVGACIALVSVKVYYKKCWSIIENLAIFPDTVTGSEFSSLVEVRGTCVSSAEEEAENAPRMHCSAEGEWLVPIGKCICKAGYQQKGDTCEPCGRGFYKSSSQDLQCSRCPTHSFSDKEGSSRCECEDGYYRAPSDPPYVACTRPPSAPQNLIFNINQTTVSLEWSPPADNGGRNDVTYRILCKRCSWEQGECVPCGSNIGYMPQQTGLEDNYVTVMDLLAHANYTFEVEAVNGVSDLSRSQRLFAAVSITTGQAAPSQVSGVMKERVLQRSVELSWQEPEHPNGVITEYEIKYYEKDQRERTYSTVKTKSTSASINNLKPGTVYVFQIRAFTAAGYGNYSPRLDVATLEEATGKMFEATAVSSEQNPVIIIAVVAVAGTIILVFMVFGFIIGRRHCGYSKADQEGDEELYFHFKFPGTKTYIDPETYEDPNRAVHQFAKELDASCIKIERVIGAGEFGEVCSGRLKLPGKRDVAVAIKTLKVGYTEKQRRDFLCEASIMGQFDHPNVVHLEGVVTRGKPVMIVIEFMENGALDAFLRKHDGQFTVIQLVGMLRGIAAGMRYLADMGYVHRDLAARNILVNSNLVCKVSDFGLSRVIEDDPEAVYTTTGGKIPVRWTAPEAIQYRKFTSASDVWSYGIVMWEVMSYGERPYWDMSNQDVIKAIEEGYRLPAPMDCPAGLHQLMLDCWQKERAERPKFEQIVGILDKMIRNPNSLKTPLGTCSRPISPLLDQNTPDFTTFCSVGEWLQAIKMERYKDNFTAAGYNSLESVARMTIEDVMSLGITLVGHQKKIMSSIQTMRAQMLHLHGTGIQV
Sequence of 456 kinases (of these 395 non-mutant kinases) (Homo sapiens, UniProt Q12866) (Q12866 21-999 limits assumed, change not shown): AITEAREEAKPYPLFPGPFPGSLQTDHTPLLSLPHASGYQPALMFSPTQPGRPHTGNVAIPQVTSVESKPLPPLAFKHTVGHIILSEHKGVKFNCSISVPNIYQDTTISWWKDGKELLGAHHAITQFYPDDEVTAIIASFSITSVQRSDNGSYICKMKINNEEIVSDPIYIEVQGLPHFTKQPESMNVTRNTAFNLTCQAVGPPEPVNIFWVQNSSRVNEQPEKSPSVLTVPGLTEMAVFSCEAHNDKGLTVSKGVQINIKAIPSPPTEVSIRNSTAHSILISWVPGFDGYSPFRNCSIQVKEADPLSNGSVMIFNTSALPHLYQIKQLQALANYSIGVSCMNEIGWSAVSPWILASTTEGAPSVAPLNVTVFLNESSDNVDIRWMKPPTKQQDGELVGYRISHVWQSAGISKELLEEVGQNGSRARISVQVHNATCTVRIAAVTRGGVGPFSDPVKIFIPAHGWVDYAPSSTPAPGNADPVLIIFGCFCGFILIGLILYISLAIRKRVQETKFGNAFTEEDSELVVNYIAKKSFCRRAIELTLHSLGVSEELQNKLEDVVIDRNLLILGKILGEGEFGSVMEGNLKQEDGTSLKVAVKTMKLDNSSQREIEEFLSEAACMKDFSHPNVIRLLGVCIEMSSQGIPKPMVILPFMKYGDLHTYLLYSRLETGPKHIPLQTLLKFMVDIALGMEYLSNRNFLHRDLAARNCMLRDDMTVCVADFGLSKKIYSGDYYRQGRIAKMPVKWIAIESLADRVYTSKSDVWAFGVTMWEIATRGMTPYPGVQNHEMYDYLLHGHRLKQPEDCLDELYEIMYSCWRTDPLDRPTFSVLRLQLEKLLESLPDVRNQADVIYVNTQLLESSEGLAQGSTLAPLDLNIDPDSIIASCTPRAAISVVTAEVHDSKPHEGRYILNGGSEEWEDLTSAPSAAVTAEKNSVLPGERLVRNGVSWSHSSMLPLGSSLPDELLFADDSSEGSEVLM
Sequence of 456 kinases (of these 395 non-mutant kinases) (Homo sapiens, UniProt P15056, V600E) (P15056 2-766 V600E limits assumed): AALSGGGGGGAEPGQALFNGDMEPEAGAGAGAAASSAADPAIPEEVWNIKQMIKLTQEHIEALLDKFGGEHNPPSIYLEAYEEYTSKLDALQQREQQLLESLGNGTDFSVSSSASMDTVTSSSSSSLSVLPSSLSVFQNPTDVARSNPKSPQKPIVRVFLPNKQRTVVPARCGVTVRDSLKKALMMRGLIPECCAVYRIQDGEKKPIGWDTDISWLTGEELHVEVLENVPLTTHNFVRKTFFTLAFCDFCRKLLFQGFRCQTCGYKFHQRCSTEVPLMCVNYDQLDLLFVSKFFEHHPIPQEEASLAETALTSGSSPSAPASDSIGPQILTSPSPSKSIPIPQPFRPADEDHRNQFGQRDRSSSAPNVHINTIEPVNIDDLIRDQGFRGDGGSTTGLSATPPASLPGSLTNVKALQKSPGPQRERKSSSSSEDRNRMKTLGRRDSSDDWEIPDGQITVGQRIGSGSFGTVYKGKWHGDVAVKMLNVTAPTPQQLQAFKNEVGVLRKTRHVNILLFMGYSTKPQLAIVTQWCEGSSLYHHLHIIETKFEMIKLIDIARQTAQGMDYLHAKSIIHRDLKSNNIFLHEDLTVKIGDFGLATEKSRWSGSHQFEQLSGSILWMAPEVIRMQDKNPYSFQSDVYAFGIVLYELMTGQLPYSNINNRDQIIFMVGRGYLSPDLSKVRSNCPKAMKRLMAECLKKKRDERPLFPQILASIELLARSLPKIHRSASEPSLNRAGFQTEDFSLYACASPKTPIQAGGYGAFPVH

Q: `CCc1ccccc1NC(=O)c1c(C)nsc1Nc1cnc2cc(F)ccc2n1` [Example 20, N-(2-Ethylphenyl)-5-[(6-fluoroquinoxalin-2-yl)amino]-3-methyl-1,2-thiazole-4-carboxamide] was tested. Which “% Ctrl @ 10 μM” value [1] did it give?
A: 98 % Ctrl

Q: What about the “% Ctrl @ 10 μM” value [2] of the same compound?
A: 86 % Ctrl

Q: And the “% Ctrl @ 10 μM” value [3]?
A: 83 % Ctrl

Q: And the “% Ctrl @ 10 μM” value [4]?
A: 84 % Ctrl

Q: What about the “% Ctrl @ 10 μM” value [5] of the same compound?
A: 81 % Ctrl

Q: What about the “% Ctrl @ 10 μM” value [6] of the same compound?
A: 94 % Ctrl

Q: And the “% Ctrl @ 10 μM” value [7]?
A: 91 % Ctrl

Q: What about the “% Ctrl @ 10 μM” value [8] of the same compound?
A: 84 % Ctrl

Q: And the “% Ctrl @ 10 μM” value [9]?
A: 87 % Ctrl

Q: What about the “% Ctrl @ 10 μM” value [10] of the same compound?
A: 100 % Ctrl

Q: And the “% Ctrl @ 10 μM” value [11]?
A: 100 % Ctrl

Q: And the “% Ctrl @ 10 μM” value [12]?
A: 100 % Ctrl

Q: What about the “% Ctrl @ 10 μM” value [13] of the same compound?
A: 100 % Ctrl

Q: And the “% Ctrl @ 10 μM” value [14]?
A: 66 % Ctrl

Q: What about the “% Ctrl @ 10 μM” value [15] of the same compound?
A: 88 % Ctrl

Q: And the “% Ctrl @ 10 μM” value [16]?
A: 77 % Ctrl

Q: And the “% Ctrl @ 10 μM” value [17]?
A: 100 % Ctrl

Q: And the “% Ctrl @ 10 μM” value [18]?
A: 61 % Ctrl

Q: What about the “% Ctrl @ 10 μM” value [19] of the same compound?
A: 73 % Ctrl

Q: And the “% Ctrl @ 10 μM” value [20]?
A: 94 % Ctrl

Q: What about the “% Ctrl @ 10 μM” value [21] of the same compound?
A: 83 % Ctrl

Q: And the “% Ctrl @ 10 μM” value [22]?
A: 82 % Ctrl

Q: What about the “% Ctrl @ 10 μM” value [23] of the same compound?
A: 94 % Ctrl

Q: And the “% Ctrl @ 10 μM” value [24]?
A: 100 % Ctrl

Q: And the “% Ctrl @ 10 μM” value [25]?
A: 92 % Ctrl

Q: What about the “% Ctrl @ 10 μM” value [26] of the same compound?
A: 84 % Ctrl

Q: And the “% Ctrl @ 10 μM” value [27]?
A: 100 % Ctrl

Q: What about the “% Ctrl @ 10 μM” value [28] of the same compound?
A: 97 % Ctrl

Q: What about the “% Ctrl @ 10 μM” value ([29]; CSF1R-autoinhibited) of the same compound?
A: 91 % Ctrl

Q: And the “% Ctrl @ 10 μM” value ([29]; CSF1R)?
A: 100 % Ctrl

Q: And the “% Ctrl @ 10 μM” value [30]?
A: 100 % Ctrl

Q: What about the “% Ctrl @ 10 μM” value [31] of the same compound?
A: 88 % Ctrl

Q: What about the “% Ctrl @ 10 μM” value [32] of the same compound?
A: 100 % Ctrl
